The values below come from patent US10752587B2, “Homobispiperidinyl derivatives as liver X receptor beta agonists, compositions and their use” (Merck Sharp & Dohme Corp., priority 2015, dated 2020).

pEC50: −log10 of the molar value.

The target in assay [1] is T1, glutathione-S-transferase (GST) tagged LXRbeta LBD (ligand binding domain) (Homo sapiens, UniProt P55055).
T1 construct: purchased Invitrogen pv4658.pps
T1 sequence (P55055 222-460 limits assumed): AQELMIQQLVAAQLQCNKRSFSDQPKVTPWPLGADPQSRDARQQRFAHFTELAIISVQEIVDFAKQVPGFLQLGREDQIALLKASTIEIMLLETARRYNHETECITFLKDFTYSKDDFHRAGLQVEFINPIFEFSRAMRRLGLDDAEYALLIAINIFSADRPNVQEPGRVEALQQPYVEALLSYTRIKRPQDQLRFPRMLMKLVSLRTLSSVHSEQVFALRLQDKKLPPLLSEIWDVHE
Nature of the assay: LanthaScreen TR-FRET Liver X Receptor Coactivator Assay, co-activator recruitment to LXRbeta LBD. It counts as biochemical. The settings on record: for Emax: efficacy at max dose, in relation to reference dual agonist T0901317, read-out: LXR beta Activity @ max dose (%); for pEC50: potency (Inflection Point, IP), co-activator recruitment to LXRbeta LBD, in relation to T0901317, read-out: LXR beta IP. The protocol: (§1) Potency (Inflection Point, IP) and efficacy (Emax) are evaluated via compound-induced co-activator recruitment to glutathione-S-transferase (GST) tagged LXRbeta and LXRalpha LBD (ligand binding domain) proteins in relation to reference dual agonist compound T0901317 (N-(2,2,2-Trifluoroethyl)-N-[4-[2,2,2-trifluoro-1-hydroxy-1-(trifluoromethyl)ethyl] phenyl] benzenesulfonamide) using the LanthaScreen™ TR-FRET Liver X Receptor Coactivator Assays according to manufacturer's instructions (Invitrogen catalog number pv4658.pps and pv4655). While running the LanthaScreen™ TR-FRET Liver X Receptor Coactivator Assay, LXR alpha-LBD or LXR beta-LBD was added to ligand test compounds followed by addition of a mixture of a fluorescein-labelled coactivator peptide and terbium-conjugated anti-GST antibody. After an incubation period at room temperature, TR-FRET (time-resolved fluorescence resonance energy transfer) was measured using a filter-based instrument capable of TR-FRET, e.g. PerkinElmer Envision.
In general terms: Time-resolved FRET reads energy transfer from a long-lived donor to a nearby acceptor.

The target of assay [2] is T2, glutathione-S-transferase (GST) tagged LXRalpha LBD (ligand binding domain) (Homo sapiens, UniProt Q13133).
T2 construct: purchased Invitrogen pv4655
T2 sequence (Q13133 209-447 limits assumed): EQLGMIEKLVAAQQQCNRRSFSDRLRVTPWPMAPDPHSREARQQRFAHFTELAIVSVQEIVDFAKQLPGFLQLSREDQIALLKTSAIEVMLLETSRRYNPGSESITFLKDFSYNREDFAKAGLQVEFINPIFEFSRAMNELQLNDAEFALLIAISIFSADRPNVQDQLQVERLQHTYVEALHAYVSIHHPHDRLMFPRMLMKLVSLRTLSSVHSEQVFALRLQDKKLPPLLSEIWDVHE
In words: LanthaScreen TR-FRET Liver X Receptor Coactivator Assay, co-activator recruitment to LXRalpha LBD. It counts as biochemical. The settings on record: for Emax: efficacy at max dose, in relation to reference dual agonist T0901317, read-out: LXR alpha Activity @ max dose (%); for LXR alpha IP (nM) / pEC50: potency (Inflection Point, IP), co-activator recruitment to LXRalpha LBD, in relation to T0901317; for pEC50: read-out: LXR alpha IP. The protocol: as §1

For the molecule `COc1cccc([C@@](O)(C(=O)N2CCC(CC3CCN(c4ccc(C(=O)N(C)C)c(Cl)c4)CC3)CC2)C(F)(F)F)c1` (single isomer, unassigned) [Example 2-34], in assay [1], the Emax stood at 69% and the pEC50 was 6.31. In assay [2], the Emax came out at 1% and the “LXR alpha IP (nM)” value is given as “NO IP”.

Take `CN(C)C(=O)c1ccc(N2CCC(CC3CCN(C(=O)[C@](N)(c4ccccc4)C(F)(F)F)CC3)CC2)cc1Cl` (stereo in doubt) [Example 2-101, 4-[4-({1-[2-amino-3,3,3-trifluoro-2-phenyl-propanoyl]piperidin-4-yl}methyl)piperidin-1-yl]-2-chloro-N,N-dimethyl-benzamide]: in assay [1], the Emax turned out to be 106% and the pEC50 was 6.94. For the same molecule, in assay [2], the Emax turned out to be 21% and the pEC50 is 5.75.

Take `COc1cccc([C@@](O)(C(=O)N2CCC(CC3CCN(c4ccc(C(=O)N(C)C)c(Cl)c4)CC3)CC2)C(F)(F)F)n1` (stereo in doubt) [Example 2-165, 2-chloro-N,N-dimethyl-4-[4-({1-[3,3,3-trifluoro-2-hydroxy-2-(6-methoxy-pyridin-2-yl)propanoyl]piperidin-4-yl}methyl)piperidin-1-yl]benzamide]: in assay [1], the Emax stood at 108% and the pEC50 was 8.60. In assay [2], the Emax came to 18% and the “LXR alpha IP (nM)” value was “NO IP”.

Regarding `CN(C)C(=O)c1ccc(N2CCC(CC3CCN(C(=O)[C@](O)(c4csc5ccccc45)C(F)(F)F)CC3)CC2)cc1Cl` (stereo in doubt) [Example 2-169, 4-[4-({1-[2-(1-benzothiophen-3-yl)-3,3,3-trifluoro-2-hydroxy-propanoyl]piperidin-4-yl}methyl)piperidin-1-yl]-2-chloro-N,N-dimethyl-benzamide], in assay [1], the Emax was determined as 71% and the pEC50 was 7.96. For the same molecule, in assay [2], the Emax is 17% and the “LXR alpha IP (nM)” value is recorded as “NO IP”.

Consider `CN(C)C(=O)c1ccc(N2CCC(CC3CCN(C(=O)OC(C)(C)C)CC3)CC2)cc1Cl` [Example 1-1, tert-butyl 4-((1-(3-chloro-4-(dimethylcarbamoyl)phenyl)piperidin-4-yl)methyl)piperidine-1-carboxylate], for which, in assay [1], the Emax turned out to be 63% and the pEC50 is 6.87. In addition, in assay [2], the Emax amounted to 22% and the pEC50 was 6.07.

For the molecule `Cc1cc(N2CCC(CC3CCN(C(=O)OC(C)(C)C)CC3)CC2)ccc1C(=O)N(C)C` [Example 1-2, tert-butyl 4-({1-[4-(dimethylcarbamoyl)-3-methylphenyl]piperidin-4-yl}methyl)piperidine-1-carboxylate], in assay [1], the Emax came to 58% and the pEC50 was 6.62. Besides, in assay [2], the Emax amounted to 13% and the “LXR alpha IP (nM)” value was “NO IP”.

For the molecule `CN(C)C(=O)c1ccc(N2CCC(CC3CCN(C(=O)C(C)(C)c4ccccc4)CC3)CC2)cc1Cl` [Example 2-1, 2-chloro-N,N-dimethyl-4-(4-((1-(2-methyl-2-phenylpropanoyl)piperidin-4-yl)methyl)piperidin-1-yl)benzamide], in assay [1], the Emax is 59% and the pEC50 was 6.80. Also, in assay [2], the Emax was found to be 5% and the “LXR alpha IP (nM)” value is “NO IP”.

Turning to `COc1cccc([C@@](O)(C(=O)N2CCC(CC3CCN(c4cnc(C(=O)N(C)C)c(C)c4)CC3)CC2)C(F)(F)F)c1` [Example 2-2, N,N,3-trimethyl-5-[4-({1-[(2R)-3,3,3-trifluoro-2-hydroxy-2-(3-methoxy-phenyl)propanoyl]piperidin-4-yl}methyl)piperidin-1-yl]pyridine-2-carboxamide], in assay [1], the Emax was determined as 43% and the pEC50 was 6.81. Moreover, in assay [2], the Emax worked out at 5% and the “LXR alpha IP (nM)” value was “NO IP”.

On to `COc1cccc([C@@](O)(C(=O)N2CCC(CC3CCN(c4cnc(C(=O)N(C)C)c(Cl)c4)CC3)CC2)C(F)(F)F)c1` [Example 2-3, 3-chloro-N,N-dimethyl-5-[4-({1-[(2R)-3,3,3-trifluoro-2-hydroxy-2-(3-methoxyphenyl)propanoyl]piperidin-4-yl}methyl)piperidin-1-yl]pyridine-2-carboxamide], for which, in assay [1], the Emax stood at 50% and the pEC50 is 7.59. Also, in assay [2], the Emax amounted to 6% and the “LXR alpha IP (nM)” value is “NO IP”.

As for `CN(C)C(=O)c1ncc(N2CCC(CC3CCN(C(=O)[C@](O)(c4ccccc4)C(F)(F)F)CC3)CC2)cc1Cl` [Example 2-4, 3-chloro-N,N-dimethyl-5-[4-({1-[(2R)-3,3,3-trifluoro-2-hydroxy-2-phenylpropanoyl]piperidin-4-yl}methyl)piperidin-1-yl] pyridine-2-carboxamide], in assay [1], the Emax was determined as 80% and the pEC50 is 7.72. Moreover, in assay [2], the Emax came out at 24% and the pEC50 was 6.34.

Take `CN(C)C(=O)c1ncc(N2CCC(CC3CCN(C(=O)C(O)(c4cccc(C(F)(F)F)c4)C(F)(F)F)CC3)CC2)cc1Cl` (stereo not drawn) [Example 2-5, 3-chloro-N,N-dimethyl-5-{4-[(1-{3,3,3-trifluoro-2-hydroxy-2-[3-(trifluoromethyl)phenyl]propanoyl}piperidin-4-yl)methyl]piperidin-1-yl}pyridine-2-carboxamide]: in assay [1], the Emax turned out to be 57% and the pEC50 is 7.54. Further, in assay [2], the Emax came out at 19% and the pEC50 was 6.12.

Regarding `CN(C)C(=O)c1ncc(N2CCC(CC3CCN(C(=O)C(O)(c4cccc(Cl)c4)C(F)(F)F)CC3)CC2)cc1Cl` (stereo not drawn) [Example 2-6, 3-chloro-5-[4-({1-[2-(3-chlorophenyl)-3,3,3-trifluoro-2-hydroxy-propanoyl]piperidin-4-yl}methyl)piperidin-1-yl]-N,N-dimethylpyridine-2-carboxamide], the Emax in assay [1] stood at 60%; in assay [2], 26%. For the same molecule, the pEC50 in assay [1] is 7.66; in assay [2], 6.06.

Consider `CN(C)C(=O)c1ncc(N2CCC(CC3CCN(C(=O)C(O)(c4cccc(F)c4)C(F)(F)F)CC3)CC2)cc1Cl` (stereo not drawn) [Example 2-7, 3-chloro-N,N-dimethyl-5-[4-({1-[3,3,3-trifluoro-2-(3-fluorophenyl)-2-hydroxy-propanoyl]piperidin-4-yl}methyl)piperidin-1-yl]pyridine-2-carboxamide], for which the values for the Emax in assay [1] and in assay [2] were 80% and 30%, respectively. The figures for the pEC50 in assay [1] and in assay [2] were 7.77 and 6.33, respectively.

Consider `CN(C)C(=O)c1ccc(N2CCC(CC3CCN(C(=O)c4c(F)cccc4F)CC3)CC2)cc1Cl` [Example 2-8, 2-chloro-4-[4-({1-[(2,6-difluorophenyl)carbonyl]piperidin-4-yl}methyl)piperidin-1-yl]-N,N-dimethyl-benzamide], for which, in assay [1], the Emax was 40% and the pEC50 is 6.45. In assay [2], the Emax was determined as 0% and the “LXR alpha IP (nM)” value is given as “NO IP”.

Take `CN(C)C(=O)c1ccc(N2CCC(CC3CCN(C(=O)C4(c5ccccc5)CC4)CC3)CC2)cc1Cl` [Example 2-9, 2-chloro-N,N-dimethyl-4-[4-({1-[(1-phenyl-cyclopropyl)carbonyl]piperidin-4-yl}methyl)piperidin-1-yl] benzamide]: in assay [1], the Emax is 48% and the pEC50 is 7.01. Besides, in assay [2], the Emax was 0% and the “LXR alpha IP (nM)” value is reported as “NO IP”.
